pIC50: −log10 of the molar value.
Legend:
Format in all cases: cell-based
ASPC1 = assay: Soft agar colony formation assay, colonies stained with MTT; conditions: Homo sapiens; ASPC1, growth in soft agar, MTT absorbance 570 nm, 3 independent experiments
Experimental: (§1) Metabolic activity was quantified using Cell Proliferation Kit I (Roche, Basel, Switzerland). Cells were seeded in 96-well cell culture plates, using 5000 cells per well for NCI-H358 cells. After treatment, 10 μl of MTT solution was added and incubated for 2 h in CO2 incubator. Then 100 μl of solubilization buffer was added to each well and incubated overnight in CO2 incubator. Cell viability, assessed by the amount of metabolized MTT, was quantified by measuring absorbance at 570 nm.
(§2) MTT assay for the growth of different tumour cell lines with RAS mutations in soft agar with Tegaserode maleate.
(§3) NCI-H358, H358, H2122, ASPC-1, HCT-116, T24 and HT1080 cells were used for the soft agar colony formation assay. After the treatment with Tegaserode maleate, the colonies were stained with MTT and the value was quantified by measuring absorbance at 570 nm after solubilization. The results represent mean±SEM from 3 independent experiments.

NCI-H2122 = assay: as above; conditions: Homo sapiens; NCI-H2122, growth in soft agar, MTT absorbance 570 nm, 3 independent experiments
Experimental: as §1, §2, §3

T24 = assay: as above; conditions: Homo sapiens, T-24; T24, growth in soft agar, MTT absorbance 570 nm, 3 independent experiments
Experimental: as §1, §2, §3

HCT-116 = assay: as above; conditions: Homo sapiens; HCT-116, growth in soft agar, MTT absorbance 570 nm, 3 independent experiments
Experimental: as §1, §2, §3

NCI-H358 = assay: as above; conditions: Homo sapiens; NCI-H358, growth in soft agar, MTT absorbance 570 nm, 3 independent experiments
Experimental: as §1, §2, §3

HT1080 = assay: as above; conditions: Homo sapiens, HT-1080; HT1080, growth in soft agar, MTT absorbance 570 nm, 3 independent experiments
Experimental: as §1, §2, §3

BaF3 KRAS G12C = assay: MTT assay for cell viability in 96 well cell culture plate; conditions: Mus musculus, 48 h treatment
Experimental: as §1
(§4) FIGS. 3a) und 3b): MTT assay for cell viability in 96 well cell culture plate Cells were treated with compounds for 48 h and cell viability was evaluated by MTT assay. The results shown are mean from 3 independent experiments. DMSO-treated cells were set as 1. The results shown are mean±SEM from 1-3 independent experiments.
(§5) G12C/Y96D mutation is normally seen in patients, who develop resistance to G12C inhibitor. Thus, patients, who are resistant to G12C inhibitors can still be treated with Tegaserode maleate.

BaF3 KRAS G12C/Y96D = assay: as above; conditions: Mus musculus, 48 h treatment
Experimental: as §1, §4, §5

[1] = system: RAS protein of RASOpathie; assay: RASOpathie-Model; MTT assay for cell viability in 96 well cell culture plate; conditions: 48 h treatment
Experimental: FIG. 4: RASOpathie-Model of Tegaserode maleate; MTT assay for cell viability in 96 well cell culture plate
Cells were treated with Tegaserode maleate for 48 h and cell viability was evaluated by MTT assay. DMSO-treated cells were set as 1. The results shown are mean±SEM from 3 independent experiments.

KRAS dependent cells = assay: MTT assay for cell viability, KRAS dependent cells (FIG. 3a); conditions: irrespective of the presence of mutation, 48 h
Experimental: as §4, §5

## CCCCCNC(=N)N/N=C/c1c[nH]c2ccc(OC)cc12.O=C(O)/C=C\C(=O)O [Tegaserode maleate, 2-[(5-Methoxy-1H-indol-3-yl)methylene]-N-pentyl-hydrazinecarboximidamide maleate]
ASPC1
  pIC50: 5.32
NCI-H2122
  pIC50: 5.47
T24
  pIC50: 4.95
HCT-116
  pIC50: 5.51
NCI-H358
  pIC50: 5.27
HT1080
  pIC50: 5.61
BaF3 KRAS G12C
  pIC50: 4.99
BaF3 KRAS G12C/Y96D
  pIC50: 5.54
[1]
  inhibition of RAS protein of RASOpathie (cell viability): inhibits RAS protein of RASOpathie
KRAS dependent cells
  inhibition of KRAS dependent cells: inhibits KRAS dependent cells irrespective of the presence of mutation
